Data set [1] has as its system Rattus norvegicus. Briefly: AUC (0 to 6 hrs) in rat at 10 mg/kg, po. Set-up: time < 6 hr, dose 10 mg/kg, route oral. It counts as ADME, organism-based, Plasma. As to conditions: in vivo.
Data set [2] has as its system Caco-2. Briefly: Apparent permeability of the compound in human Caco2 cells. Type of data set: ADME, cell-based. For orientation: Caco-2 cells form a polarised layer with tight junctions and transporters.
The nature of data set [3]: Intrinsic clearance in rat hepatocytes assessed per 10^6 cells at 1 uM up to 180 mins. Type of data set: ADME, cell-based, Hepatocyte. As to conditions: read-out: CLH.
Data set [4] is described as follows: Intrinsic clearance in human hepatocytes assessed per 10^6 cells at 1 uM up to 180 mins. It counts as ADME, cell-based, Hepatocyte. As to conditions: read-out: CLH.
Data set [5] concerns Rattus norvegicus. The data set can be described thus: Oral bioavailability in Sprague-Dawley rat at 3 mg/kg. As to conditions: in vivo. It counts as ADME, organism-based.
Data set [6] concerns Rattus norvegicus. The data set can be described thus: Terminal half life in Sprague-Dawley rat at 3 mg/kg, iv. It counts as ADME, organism-based. Set-up: dose 3 mg/kg, route intravenous. The note with it: in vivo.
The test system of data set [7] is Nucleic Acid. The data set can be described thus: Ratio of drug level in brain to plasma in Sprague-Dawley rat at 3 mg/kg, po after 3 hrs. It counts as ADME, organism-based. Set-up: dose 3 mg/kg, route oral.
Data set [8] can be described thus: Solubility of the compound at pH 7.4. Type of data set: physicochemical. As to conditions: buffer.
The nature of data set [9]: Dissociation constant, pKa of the compound. It counts as physicochemical.
Data set [10] can be described thus: Lipophilicity, log D of the compound. The note with it: octanol/water. Type of data set: physicochemical.

For orientation: AUC means the area under the concentration-time curve, a measure of exposure. Broadly, the Papp is a coefficient for how fast a substance crosses the barrier. As usually defined, the solubility is how much of the substance goes into solution per volume. One may read the pKa as the pH at which an ionisable group is half protonated. Low readings indicate a stronger acid or weaker base, high ones a weaker acid or stronger base. What is called logD is lipophilicity at a set pH, counting ionised and neutral species.

The structures appear in SMILES notation. In brackets after ≈: the same amount, converted by molar mass.

Consider `COc1cccc(-c2cccc([C@]3(C)CC(=O)N(C)C(=N)N3)c2)c1`, for which, in [1], the AUC is < 1 µM·h.
In [1], `CN1C(=N)N[C@](C)(c2cccc(-c3cccc(C#N)c3)c2)CC1=O` came in with an area under the curve (AUC) of 8.6 µM·h.
Turning to `CN1C(=N)N[C@](C)(c2cccc(-c3cccnc3)c2)CC1=O`, in [1], the area under the curve (AUC) is < 1 µM·h.
In the case of `CC#Cc1cncc(-c2cc(Cl)c([C@]3(C)CC(=O)N(C)C(=N)N3)s2)c1`, the apparent permeability (Papp) in [2] is 15.3 ×10⁻⁶ cm/s. In addition, the hepatocyte CLint at 1 µM in data set [3] was determined as 4.9 µL/min/1e6 cells; in data set [4] it was 2.7 µL/min/1e6 cells. Also, the F in data set [5] was found to be 69%. For the same compound, in data set [6], the “beta t1/2” value was 2.8 h. In data set [7], the BPR is on record as 3. In data set [8], the solubility was found to be 200 µM (≈ 74.6 µg/mL). This compound displayed a pKa in data set [9] of 7.5. This compound also showed a logD in [10] of 1.8.
